The test system of assay [1] is MV-4-11 cell line derived xenograft. Kind of assay: MV-4-11 cell line derived xenograft model. The format is in vivo.
The test system of assay [2] is primary AML patient samples. In words: Cell viability GI50 against primary AML patient samples (CellTiter-Glo). The format is cell-based. How it is done:
Compounds were diluted in DMSO (<0.05% DMSO) and dispensed into a 384-well plate using the Echo 555 liquid handler (Labcyte). Following the addition of compounds, cells were pipetted into the 384-well plates at a concentration of between 2,000 and 8,000 cells per well in IMDM or RPMI media, as noted above, supplemented with 10% FBS and incubated at 37° C., 5% CO2 in a tissue culture incubator. Plates were incubated for 48 hours, and cell viability was measured using the CellTiter-Glo reagent (Promega). Percent viability was defined as relative luminescence units (RLU) of each well divided by the RLU of cells in DMSO control. Dose-response curves and GI50 values were determined using linear regression of double-log transformed data (GraphPad Prism version 6.0 h). Control bone marrow-derived CD34+ cells were purchased from STEMCELL Technologies.
(Cellular ATP, detected with luciferase, serves as a proxy for viable cell number.)

Assay [3] deals with NCI-60 cell lines that do not exhibit the Warburg effect. The note with it: cited from earlier work.
Assay [4] deals with E1A oncogene transformed cell lines. Conditions: cited from earlier work.
In the next assay the test system is untransformed lines. Conditions: cited from earlier work.

Molecules are shown by their SMILES. Where two headings read alike, the source gives them in different places.

As to `COCCC[C@H]1O[C@@](O)([C@H](C)[C@@H]2C[C@H](OC)[C@H](O)\C=C(C)/C=C(C)\C=C(\C)[C@@H](O[C@@H]3O[C@@H](C)[C@H](O)[C@@H](O)[C@@H]3O)[C@H](C)\C=C(C)/C=C(OC)\C=C(\C)C(=O)O2)[C@H](OC)[C@@H](O)[C@]1(C)O[C@H]1C[C@H](O)[C@H](O[C@H]2C[C@@](C)(O)[C@H](O)[C@@H](C)O2)[C@@H](C)O1` [ammocidin A], the “efficacy in xenograft model” value in assay [1] is reported as “comparable efficacy”. Also, the GI50 in assay [2] (patient sample 17-03-006, data collected Jul. 8, 2021, read-out: GI50 from double log regression (converted)) is 32.1 nM; in assay [2] (patient sample 17-03-006, data collected Jul. 8, 2021, read-out: viability GI50 from Prism), 10.3 nM; in assay [2] (patient sample 17-03-006, data collected Mar. 8, 2022, read-out: GI50 from double log regression (converted)), 30.8 nM; in assay [2] (patient sample 17-03-006, data collected Mar. 8, 2022, read-out: viability GI50 from Prism), 9.5 nM; in assay [2] (patient sample 18-12-001, data collected Jul. 8, 2021, read-out: GI50 from double log regression (converted)), 31.2 nM; in assay [2] (patient sample 18-12-001, data collected Jul. 8, 2021, read-out: viability GI50 from Prism), 30.2 nM. Further, the GI50 was 75.4 nM in assay [2] (patient sample 18-12-001, data collected Mar. 8, 2022, read-out: GI50 from double log regression (converted)); 21.7 nM in assay [2] (patient sample 29-09-002, data collected Jul. 8, 2021, read-out: GI50 from double log regression (converted)); 15.8 nM in assay [2] (patient sample 29-09-002, data collected Jul. 8, 2021, read-out: viability GI50 from Prism).

`COC[C@@H](C[C@H]1O[C@@](O)([C@H](O)[C@@H]2C[C@H](OC)[C@@H](O)CC/C=C(C)/C=C/[C@@H](O[C@@H]3O[C@@H](C)[C@H](OC)[C@@H](O)[C@@H]3O)[C@H](C)/C=C(C)/C=C(C)/C=C(\C)C(=O)O2)[C@H](C)[C@@H](O)[C@H]1C)OC1C[C@](C)(O)[C@@H](O[C@H]2C[C@@H](OC)[C@H](O)[C@@H](C)O2)[C@H](C)O1` (some centres unmarked) [apoptolidin, Apoptolidin A]: the “activity in NCI-60 cell lines relying on oxidative phosphorylation” value in assay [3] is given as “low nanomolar”. Besides, in assay [4] (transformed cells), the “potency against transformed cells” value is on record as 10 nM. Further, the “fold more potent against transformed cells than untransformed lines” value in assay [4] (transformed vs untransformed) was 1,000 fold. The “potency against untransformed lines” value in the assay with untransformed lines was 10 µM.

As usually defined, the GI50 is the concentration at which growth is held to half of that of the control.

The record behind these values is patent US20240254157A1, “MACROLIDE COMPOUNDS” (VANDERBILT UNIVERSITY, priority 2021, published 2024).
